The record followed here is patent US11149011B2, “Compounds and methods for IDO and TDO modulation, and indications therefor” (Plexxikon Inc., priority 2018, dated 2021).

Bounds are passed on as bounds.

For test [1], the target named is T1, IDO1-expressing HEK293 cell clones (Homo sapiens, UniProt P14902).
T1 construct: expressed in transfected cells; host or cells: HEK293
Nature of the test: Cell based kynurenine assay, IDO1-expressing HEK293 cell clones. The conditions noted are these: HEK293 cells, 24 hours of incubation, geometric mean; read-out: HEK293 IDO1 Kynurenine GMean IC50 (μM) (Cellular Assay). The method, then:
(§1) IDO1-expressing or TDO-expressing HEK293 cell clones are generated upon stable transfection of plasmids expressing human IDO or human TDO under the control of CMV promoter. Cells are selected in DMEM media supplemented with 10% fetal bovine serum and 1 mg/ml G418 at 37° C. in a humidified incubator supplied with 5% CO2. The assays are performed as follows.
(§2) Cells were seeded in a 96 well plate in 50 μL of culture media at a density of 2.5×10^4 per well. Serial dilutions of compounds (in total volume of 50 μL culture media) are added into cells. 4 wells containing 0.2% DMSO treated cells serve as high controls and 4 wells containing media only with 0.2% DMSO serve as low controls. After 24 hours of incubation, the supernatant was transferred to a 384 well reaction plate and the kynurenine level determined. The percentage inhibition at individual concentrations relative to high and low controls is calculated. The data is analyzed by using nonlinear regression to generate IC50 values.

Test [2] deals with T2, TDO-expressing HEK293 cell clones (Homo sapiens, UniProt P48775).
T2 construct: expressed in transfected cells; host or cells: HEK293
T2 sequence (P48775 whole entry): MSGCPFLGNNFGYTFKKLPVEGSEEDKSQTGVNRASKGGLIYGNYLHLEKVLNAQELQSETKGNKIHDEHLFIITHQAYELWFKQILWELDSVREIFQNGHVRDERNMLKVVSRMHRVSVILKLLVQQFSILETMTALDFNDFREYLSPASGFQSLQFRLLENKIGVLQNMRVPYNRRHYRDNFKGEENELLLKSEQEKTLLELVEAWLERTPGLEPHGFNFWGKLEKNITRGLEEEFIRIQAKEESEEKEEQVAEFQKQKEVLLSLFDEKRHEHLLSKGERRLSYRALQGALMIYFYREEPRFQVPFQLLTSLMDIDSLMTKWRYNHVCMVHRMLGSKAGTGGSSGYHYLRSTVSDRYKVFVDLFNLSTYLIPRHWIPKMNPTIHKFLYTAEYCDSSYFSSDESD
The test can be described thus: Cell based kynurenine assay, TDO-expressing HEK293 cell clones. The conditions noted are these: HEK293 cells, 24 hours of incubation, geometric mean; read-out: HEK293 TDO Kynurenine GMean IC50 (μM) (Cellular Assay). As for the experimental part: as §1, §2

Another test addresses T3, TDO (Homo sapiens, UniProt P48775).
T3 construct: His tag (N); made in house; host or cells: E. coli
Nature of the test: TDO enzymatic assay. The conditions noted are these: geometric mean; read-out: TDO GMean: IC50 (μM) (Biochemical Assay). As for the experimental part: (§3) Human IDO or TDO with N-terminal His tag is purified in E. coli. The IDO enzymatic assay is performed using 6 nM IDO and 10 μM L-Trp in the presence of 10 mM ascorbic acid, 5 μM methylene blue, 100 nM catalase and 0.01% Tween 20 in 50 mM sodium phosphate buffer (pH 6.5). 19 μL of above reaction mixture is added to wells of 384 well reaction plate containing 1 μL of various concentrations of test compound or DMSO vehicle and incubated for 20 minutes at room temperature. The TDO enzymatic reaction assay is performed using 1 nM TDO and 350 μM L-Trp in the presence of 10 mM ascorbic acid, 0.4 μM methylene blue, 100 nM catalase and 0.01% Tween 20 in 50 mM sodium phosphate buffer (pH 6.5). 19 μL of above reaction mixture is added to wells of 384 well reaction plate containing 1 μL of various concentrations of test compound or DMSO vehicle and incubated for 70 minutes at room temperature. 16 wells containing all the components of reaction mixture and 5% DMSO serve as high control. 16 well containing all the components except enzyme of reaction mixture and 5% DMSO serves as low control. Both IDO and TDO enzymatic reactions are stopped by addition of 4 μL of 30% TCA and incubated 30 minutes at 50° C. to hydrolyze N-formylkynurenine produced by IDO or TDO to kynurenine. Upon measuring the kynurenine level, the percentage inhibition is calculated at individual concentrations relative to high and low controls. The data is analyzed by using nonlinear regression to generate IC50 values.

For a further test, the target named is T4, IDO1 (Homo sapiens, UniProt P14902).
T4 construct: His tag (N); made in house; host or cells: E. coli
T4 sequence (P14902 whole entry): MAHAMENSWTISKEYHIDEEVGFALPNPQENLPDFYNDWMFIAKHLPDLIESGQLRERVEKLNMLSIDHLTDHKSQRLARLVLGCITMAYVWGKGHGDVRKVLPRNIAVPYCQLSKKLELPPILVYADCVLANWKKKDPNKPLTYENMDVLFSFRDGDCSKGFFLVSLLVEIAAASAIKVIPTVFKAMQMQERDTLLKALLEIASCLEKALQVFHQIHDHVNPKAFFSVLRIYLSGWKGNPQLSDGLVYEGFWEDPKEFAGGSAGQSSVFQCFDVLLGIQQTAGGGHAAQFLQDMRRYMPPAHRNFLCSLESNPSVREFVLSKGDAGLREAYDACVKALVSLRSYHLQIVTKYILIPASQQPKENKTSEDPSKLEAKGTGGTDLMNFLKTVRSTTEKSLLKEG
Nature of the test: IDO enzymatic assay. The format is biochemical. The conditions noted are these: geometric mean; read-out: IDO1 GMean: IC50 (μM) (Biochemical Assay). The method, then:
as §3

T3 sequence (P48775 whole entry): as the sequence (P48775 whole entry) above
T1 sequence (P14902 whole entry): as the sequence (P14902 whole entry) above

Take `CC(C)(C1CCN(C(=O)NCc2ncccn2)CC1)[C@H](O)c1cc(Cl)cc2cn[nH]c12` [Compound P-0027, (S)-4-(1-(5-chloro-1H-indazol-7-yl)-1-hydroxy-2-methylpropan-2-yl)-N-(pyrimidin-2-ylmethyl)piperidine-1-carboxamide]: the IC50 (in test [1]; in test [2]; at TDO; on IDO1) was 0.0001 to 10 µM in each case.

Consider `C[C@@H](NC(=O)N1CCC(C(C)(C)[C@H](O)c2cc(Cl)cc3cn[nH]c23)CC1)c1ccccn1` [Compound P-0028, 4-((S)-1-(5-chloro-1H-indazol-7-yl)-1-hydroxy-2-methylpropan-2-yl)-N-((R)-1-(pyridin-2-yl)ethyl)piperidine-1-carboxamide], for which the IC50 (in test [1]; in test [2]; on TDO; on IDO1) was 0.0001 to 10 µM in each case.

Turning to `CC(C)(C1CCN(C(=O)NCC2(O)CCC2)CC1)[C@H](O)c1cc(Cl)cc2cn[nH]c12` [Compound P-0029, (S)-4-(1-(5-chloro-1H-indazol-7-yl)-1-hydroxy-2-methylpropan-2-yl)-N-((1-hydroxycyclobutyl)methyl)piperidine-1-carboxamide], the IC50 (in test [1]; in test [2]; on TDO; at IDO1) was 0.0001 to 10 µM in each case.

As for `CC(C)(C1CCN(C(=O)NCCC#N)CC1)[C@H](O)c1cc(Cl)cc2cn[nH]c12` [Compound P-0030, (S)-4-(1-(5-chloro-1H-indazol-7-yl)-1-hydroxy-2-methylpropan-2-yl)-N-(2-cyanoethyl)piperidine-1-carboxamide], the IC50 (in test [1]; in test [2]; at TDO; on IDO1) was 0.0001 to 10 µM each time.

`CC1(CNC(=O)N2CCC(C(C)(C)[C@H](O)c3cc(Cl)cc4cn[nH]c34)CC2)COC1` [Compound P-0031, (S)-4-(1-(5-chloro-1H-indazol-7-yl)-1-hydroxy-2-methylpropan-2-yl)-N-((3-methyloxetan-3-yl)methyl)piperidine-1-carboxamide]: the IC50 was 0.0001 to 10 µM in test [1], greater than 10 µM in test [2], 0.0001 to 10 µM on TDO and 0.0001 to 10 µM on IDO1.

As to `CC(C)(C1CCN(C(=O)Nc2ccc(Cl)nc2)CC1)[C@H](O)c1cc(Cl)cc2cn[nH]c12` [Compound P-0032, (S)-4-(1-(5-chloro-1H-indazol-7-yl)-1-hydroxy-2-methylpropan-2-yl)-N-(6-chloropyridin-3-yl)piperidine-1-carboxamide], the IC50 in test [1] was 0.0001 to 10 µM; in test [2], greater than 10 µM; on TDO, 0.0001 to 10 µM; at IDO1, 0.0001 to 10 µM.

In the case of `N#CCC(=O)N1CCC(C(F)(F)C(=O)c2c(F)c(Cl)cc3cn[nH]c23)CC1` [Compound P-0033, 3-(4-(2-(5-chloro-6-fluoro-1H-indazol-7-yl)-1,1-difluoro-2-oxoethyl)piperidin-1-yl)-3-oxopropanenitrile], the IC50 in test [1] was 0.0001 to 10 µM; in test [2] it was greater than 10 µM; at TDO, 0.0001 to 10 µM; at IDO1 it was 0.0001 to 10 µM.

Turning to `COCC(=O)N1CCC(C(F)(F)C(=O)c2c(F)c(Cl)cc3cn[nH]c23)CC1` [Compound P-0034, 1-(5-chloro-6-fluoro-1H-indazol-7-yl)-2,2-difluoro-2-(1-(2-methoxyacetyl)piperidin-4-yl)ethan-1-one], the IC50 (in test [1]; in test [2]; on TDO; at IDO1) was 0.0001 to 10 µM in each case.

On to `CCNC(=O)N1CCC(C(F)(F)C(=O)c2c(F)c(Cl)cc3cn[nH]c23)CC1` [Compound P-0035, 4-(2-(5-chloro-6-fluoro-1H-indazol-7-yl)-1,1-difluoro-2-oxoethyl)-N-ethylpiperidine-1-carboxamide], for which the 50% inhibitory concentration (IC50) (in test [1]; in test [2]; on TDO; on IDO1) was 0.0001 to 10 µM each time.

For `O=C(NCC1CC1)N1CCC(C(F)(F)C(=O)c2c(F)c(Cl)cc3cn[nH]c23)CC1` [Compound P-0036, 4-(2-(5-chloro-6-fluoro-1H-indazol-7-yl)-1,1-difluoro-2-oxoethyl)-N-(cyclopropylmethyl)piperidine-1-carboxamide], the IC50 (in test [1]; in test [2]; at TDO; at IDO1) was 0.0001 to 10 µM each time.

`COCCCNC(=O)N1CCC(C(F)(F)C(=O)c2c(F)c(Cl)cc3cn[nH]c23)CC1` [Compound P-0037, 4-(2-(5-chloro-6-fluoro-1H-indazol-7-yl)-1,1-difluoro-2-oxoethyl)-N-(3-methoxypropyl)piperidine-1-carboxamide]: the IC50 (in test [1]; in test [2]; at TDO; on IDO1) was 0.0001 to 10 µM in each case.

In the case of `CS(=O)(=O)CCNC(=O)N1CCC(C(F)(F)C(=O)c2c(F)c(Cl)cc3cn[nH]c23)CC1` [Compound P-0038, 4-(2-(5-chloro-6-fluoro-1H-indazol-7-yl)-1,1-difluoro-2-oxoethyl)-N-(2-(methylsulfonyl)ethyl)piperidine-1-carboxamide], the IC50 in test [1] was 0.0001 to 10 µM; in test [2], greater than 10 µM; on TDO it was 0.0001 to 10 µM; at IDO1 it was 0.0001 to 10 µM.

Turning to `O=C(NCCC(F)(F)F)N1CCC(C(F)(F)C(=O)c2c(F)c(Cl)cc3cn[nH]c23)CC1` [Compound P-0039, 4-(2-(5-chloro-6-fluoro-1H-indazol-7-yl)-1,1-difluoro-2-oxoethyl)-N-(3,3,3-trifluoropropyl)piperidine-1-carboxamide], the IC50 (in test [1]; in test [2]; at TDO; on IDO1) was 0.0001 to 10 µM each time.

As to `O=C(NC1CC(F)(F)C1)N1CCC(C(F)(F)C(=O)c2c(F)c(Cl)cc3cn[nH]c23)CC1` [Compound P-0040, 4-(2-(5-chloro-6-fluoro-1H-indazol-7-yl)-1,1-difluoro-2-oxoethyl)-N-(3,3-difluorocyclobutyl)piperidine-1-carboxamide], the half-maximal inhibitory concentration (IC50) (in test [1]; in test [2]; on TDO; at IDO1) was 0.0001 to 10 µM each time.

`O=C(NC1CCC(F)(F)CC1)N1CCC(C(F)(F)C(=O)c2c(F)c(Cl)cc3cn[nH]c23)CC1` [Compound P-0041, 4-(2-(5-chloro-6-fluoro-1H-indazol-7-yl)-1,1-difluoro-2-oxoethyl)-N-(4,4-difluorocyclohexyl)piperidine-1-carboxamide]: the IC50 (in test [1]; in test [2]; on TDO; on IDO1) was 0.0001 to 10 µM each time.

As for `N#CCCCNC(=O)N1CCC(C(F)(F)C(=O)c2c(F)c(Cl)cc3cn[nH]c23)CC1` [Compound P-0042, 4-(2-(5-chloro-6-fluoro-1H-indazol-7-yl)-1,1-difluoro-2-oxoethyl)-N-(3-cyanopropyl)piperidine-1-carboxamide], the half-maximal inhibitory concentration (IC50) (in test [1]; in test [2]; at TDO; on IDO1) was 0.0001 to 10 µM each time.
